Assay results reported in paper PMC6968685 (Journal of Enzyme Inhibition and Medicinal Chemistry, 2020).

How the values were obtained:
[1] = test system: F21T (DNA, G4) GGGTTAGGGTTAGGGTTAGGG; assay: FRET melting; details: 10 mM K+, 90 mM Li+; 10 mM lithium cacodylate pH 7.2; 2 µM compound, 0.2 µM oligonucleotide
[2] = test system: FtrypBT (FEBR1T; FtryBT) (DNA, G4) GGGCAGGGGGTGATGGGGAGGAGCCAGGG; assay: FRET melting; details: 10 mM K+, 90 mM Li+; 10 mM lithium cacodylate pH 7.2; 2 µM compound, 0.2 µM oligonucleotide
[3] = test system: FPf8T (DNA, G4) GGGTTCAGGGTTCAGGGTTCAGGG; assay: FRET melting; details: 10 mM K+, 90 mM Li+; 10 mM lithium cacodylate pH 7.2; 2 µM compound, 0.2 µM oligonucleotide
[4] = test system: FPf1T (DNA, G4) GGGTTTAGGGTTTAGGGTTTAGGG; assay: FRET melting; details: 10 mM K+, 90 mM Li+; 10 mM lithium cacodylate pH 7.2; 2 µM compound, 0.2 µM oligonucleotide
[5] = test system: FdxT (DNA, duplex, hexaethylene glycol linker between nucleotides 10 and 11) TATAGCTATATATAGCTATA; assay: FRET melting; details: 10 mM K+, 90 mM Li+; 10 mM lithium cacodylate pH 7.2; 2 µM compound, 0.2 µM oligonucleotide
[6] = test system: P. falciparum CQ-sensitive strain 3D7; assay: In vitro antiplasmodial activity, SYBR Green I fluorescence-based method, strain 3D7; assay type: cell-based; details: Plasmodium falciparum; chloroquine-sensitive strain 3D7; 48 h incubation; read-out: P. falciparum strains IC50 values, 3D7
Outline: (§1)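 P. falciparum 3D7 and W2 cultured in human erythrocytes in RPMI with 0.5% Albumax I at 37 °C, exposed 48 h to compounds tested […]. Parasite DNA read by SYBR Green I fluorescence (ex 485/em 535 nm); IC50 by non-linear regression, mean of three independent experiments.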

[7] = Cytotoxicity evaluation, MTT; assay type: cell-based, human; details: human
Outline: (§2)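 HepG2 hepatocarcinoma cells exposed to compound in duplicate, then viability measured by MTT reduction (0.5 mg/ml), formazan dissolved in DMSO and read at 570 nm against 630 nm. Viability expressed as percent of untreated cells; CC50 taken from dose-response curve, doxorubicin as positive control.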

[8] = test system: Plasmodium telomeric sequence FPf8T G-quadruplex; assay: FRET melting experiments, FPf8T; assay type: binding, P. falciparum; details: 2 μM compound, 0.2 μM oligonucleotide, K+ conditions
Description: (§3) These were performed with dual-labelled oligonucleotides mimicking the Plasmodium telomeric sequences FPf1T [FAM-5′(GGGTTTA)3-GGG3′-TAMRA] and FPf8T [FAM-5′ (GGGTTCA)3GGG3′-TAMRA], the Trypanosoma 9 and 11 chromosomic sequence FTrypBT (also named FEBR1T) [FAM-5′[…]3′-TAMRA], the human telomeric sequence F21T [FAM-(GGGTTA)3-GGG3′-TAMRA], and the human duplex sequence FdxT [FAM5′-[…]-hexaethyleneglycol-[…]3′-TAMRA][51]^,[52]. The oligonucleotides were pre-folded in 10 mM lithium cacodylate buffer (pH 7.2), with 10 mM KCl and 90 mM LiCl (K^+condition). The FAM emissions were recorded at 516 nm using a 492-nm excitation wavelength in the absence and presence of a single compound as a function of temperature (25–95 °C) in 96-well microplates by using a Stratagene MX3000P real-time PCR device at a rate of 1 °C·min^−1. Data were normalised between 0 and 1, and the required temperature for half-denaturation of oligonucleotides corresponding to the emission value of 0.5 was taken as the Tm. […] For each compound, three independent experiments were carried out.

[9] = test system: Trypanosoma 9 and 11 chromosomic sequence FTrypBT (FEBR1T) G-quadruplex; assay: FRET melting experiments, FtrypBT; assay type: binding, T. brucei brucei; details: 2 μM compound, 0.2 μM oligonucleotide, K+ conditions
Description: as §3

[10] = test system: human telomeric sequence F21T G-quadruplex; assay: FRET melting experiments, F21T; assay type: binding; details: 2 μM compound, 0.2 μM oligonucleotide, K+ conditions
Description: as §3

[11] = test system: human duplex sequence FdxT; assay: FRET melting experiments, FdxT duplex control; assay type: binding; details: 2 μM compound, 0.2 μM oligonucleotide, K+ conditions
Description: as §3

[12] = test system: P. falciparum CQ-resistant strain W2; assay: In vitro antiplasmodial activity, SYBR Green I fluorescence-based method, strain W2; assay type: cell-based; details: Plasmodium falciparum; chloroquine-resistant strain W2; 48 h incubation; read-out: P. falciparum strains IC50 values, W2
Outline: as §1

[13] = test system: T. brucei brucei AnTat 1.9; assay: In vitro antitrypanosomal activity, Alamar Blue assay; assay type: cell-based; details: Trypanosoma brucei; slender bloodstream trypomastigotes, AnTat 1.9 strain; read-out: Trypanosoma brucei brucei IC50 values, Trypanos Antat 1.9
Outline: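 Bloodstream parasites (2000/well) in supplemented MEM with 20% horse serum exposed to compound in duplicate for 69 h at 37 °C, then Alamar Blue added for 5 h; fluorescence read at ex 530/em 590 nm. IC50 by nonlinear regression, from three independent experiments.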

[14] = test system: L. donovani (MHOM/IN/00/DEVI) promastigotes; assay: In vitro antileishmanial activity, MTT assay on promastigotes; assay type: cell-based; details: Leishmania donovani, 72 h incubation, ≥10 = no activity noted at the highest concentration tested
Outline: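 Log-phase L. donovani MHOM/IN/00/DEVI promastigotes (10^6/ml, Schneider's + 20% FCS) were exposed to graded compound concentrations (DMSO <0.5% v/v) for 72 h at 27 °C, in duplicate. Growth measured by MTT reduction (4 h, A570 nm); IC50 obtained by regression.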

[15] = test system: Plasmodium telomeric sequence FPf1T G-quadruplex; assay: FRET melting experiments, FPf1T; assay type: binding, P. falciparum; details: 2 μM compound, 0.2 μM oligonucleotide, K+ conditions
Description: as §3

human HepG2 cells = assay: Cytotoxicity evaluation, MTT; assay type: cell-based; details: HepG2 cells; 72 h
Outline: as §2

SMILES	ΔTm [1] [°C]	ΔTm [2] [°C]	ΔTm [3] [°C]	ΔTm [4] [°C]	ΔTm [5] [°C]	IC50 [6] [nM]	CC50 at 72 h [7] [nM]	ΔTm FPf8T [8] [°C]	ΔTm FtrypBT [9] [°C]	ΔTm F21T [10] [°C]	ΔTm FdxT [11] [°C]	IC50 [12] [nM]	IC50 [13] [nM]	IC50 [14] [nM]	ΔTm FPf1T [15] [°C]	CC50 (human HepG2 cells) [nM]
COc1ccc2cc(-c3ccc(CNCCCCN(C)C)cc3)nc(-c3ccc(CNCCCCN(C)C)cc3)c2c1	22.2 ± 0.1	24.0 ± 0.3	26.6 ± 0.2	27.3 ± 1.1	4.1 ± 0.3											
CN(C)CCCNCc1ccc(-c2cc3ccccc3c(-c3ccc(CNCCCN(C)C)cc3)n2)cc1 [Compound 2b, 1,3-Bis{4-[(3-dimethylaminopropyl)aminomethyl]phenyl}isoquinoline]						1820 ± 310	3470 ± 300	13.0 ± 1.1	11.7 ± 0.6	12.7 ± 0.3	0.3 ± 0.2	3020 ± 250	350 ± 49	≥ 10000	13.6 ± 1.3	
COc1ccc2c(-c3ccc(CNCCCCN(C)C)cc3)nc(-c3ccc(CNCCCCN(C)C)cc3)cc2c1 [Compound 2i, 6-Methoxy-1,3-bis{4-[(4-dimethylaminobutyl)aminomethyl]phenyl}isoquinoline]						8460 ± 660	10800 ± 800	12.9 ± 1.0	8.4 ± 0.3	23.2 ± 0.6	0.9 ± 0.1	2400 ± 490	640 ± 323	≥ 10000	12.8 ± 1.3	
c1cc(CNCCN2CCOCC2)cc(-c2nc(-c3cccc(CNCCN4CCOCC4)c3)c3ccccc3n2)c1	0.1 ± 0.1	0.6 ± 0.1	0.5 ± 0.4	0.5 ± 0.3												
COc1ccc2nc(-c3ccc(CNCCCN(C)C)cc3)nc(-c3ccc(CNCCCN(C)C)cc3)c2c1 [Compound 3i, 6-Methoxy-2,4-bis{4-[(3-dimethylaminopropyl)aminomethyl]phenyl}quinazoline]						4050 ± 950	1930 ± 100	15.6 ± 0.3	12.7 ± 0.7	12.6 ± 0.0	0.3 ± 0.3	4340 ± 740	440 ± 84	≥ 10000	16.0 ± 0.3	
COc1ccc2c(-c3ccc(CNCCCN(C)C)cc3)nc(-c3ccc(CNCCCN(C)C)cc3)cc2c1 [Compound 2j, 6-Methoxy-1,3-bis{4-[(3-dimethylaminopropyl)aminomethyl]phenyl}isoquinoline]						7210 ± 590	2160 ± 200	15.0 ± 0.6	12.2 ± 1.1	13.9 ± 0.1	0.5 ± 0.3	5090 ± 760	590 ± 131	≥ 10000	15.3 ± 0.7	
COc1ccc2cc(-c3ccc(CNCCCCN(C)C)cc3)nc(-c3ccc(CNCCCCN(C)C)cc3)c2c1 [Compound 2e, 7-Methoxy-1,3-bis{4-[(4-dimethylaminobutyl)aminomethyl]phenyl}isoquinoline]						4410 ± 510	9570 ± 1000	26.6 ± 0.2	24.0 ± 0.3	22.2 ± 0.1	4.1 ± 0.3	6060 ± 640	550 ± 122	≥ 10000	27.3 ± 1.1	
COc1ccc2c(-c3ccc(CNCCCCN(C)C)cc3)nc(-c3ccc(CNCCCCN(C)C)cc3)nc2c1 [Compound 3m, 7-Methoxy-2,4-bis{4-[(4-dimethylaminobutyl)aminomethyl]phenyl}quinazoline]						1180 ± 430	25100 ± 1200	17.8 ± 0.5	13.8 ± 0.5	19.4 ± 0.4	1.7 ± 0.3	4220 ± 550	750 ± 60	≥ 10000	18.3 ± 0.7	
COc1ccc2nc(-c3ccc(CNCCCCN(C)C)cc3)nc(-c3ccc(CNCCCCN(C)C)cc3)c2c1				19.8 ± 0.6												
COc1ccc2c(-c3ccc(CNCCCCN(C)C)cc3)nc(-c3ccc(CNCCCCN(C)C)cc3)cc2c1	23.2 ± 0.6															
COc1ccc2cc(-c3ccc(CNCCCN(C)C)cc3)nc(-c3ccc(CNCCCN(C)C)cc3)c2c1 [Compound 2f, 7-Methoxy-1,3-bis{4-[(3-dimethylaminopropyl)aminomethyl]phenyl}isoquinoline]						1470 ± 240	2120 ± 200	18.5 ± 0.5	16.9 ± 1.1	15.8 ± 0.1	0.8 ± 0.3	4760 ± 660	520 ± 72	≥ 10000	20.3 ± 1.1	
CN(C)CCNCc1ccc(-c2cc(-c3ccc(CNCCN(C)C)cc3)c3ccccc3n2)cc1 [Compound 1c, 2,4-Bis{4-[(2-dimethylaminoethyl)aminomethyl]phenyl}quinoline]						32 ± 4	3100 ± 900	2.7 ± 0.2	2.6 ± 0.4	2.8 ± 1.3	−0.5 ± 0.4	340 ± 37	1480 ± 85	≥ 10000	2.3 ± 0.7	
N=C(N)c1ccc(OCCCCCOc2ccc(C(=N)N)cc2)cc1 [Pentamidine, reference compound]													0.2 ± 0.06	5500 ± 800		2300 ± 500
COc1ccc2nc(-c3ccc(CNCCN(C)C)cc3)nc(-c3ccc(CNCCN(C)C)cc3)c2c1 [Compound 3j, 6-Methoxy-2,4-bis{4-[(2-dimethylaminoethyl)aminomethyl]phenyl}quinazoline]						560 ± 20	3120 ± 200	3.1 ± 0.4	4.4 ± 0.5	7.2 ± 0.4	−0.4 ± 0.2	1230 ± 150	1040 ± 85	≥ 10000	3.4 ± 0.4	
CN1CCN(CCNCc2ccc(-c3cc(-c4ccc(CNCCN5CCN(C)CC5)cc4)c4ccccc4n3)cc2)CC1 [Compound 1f, 2,4-Bis{4-[(2–(4-methylpiperazin-1-yl)ethyl)aminomethyl]phenyl}quinoline]						2420 ± 270	4090 ± 300	11.0 ± 0.5	9.4 ± 0.6	9.5 ± 2.9	−0.1 ± 0.2	130 ± 24	990 ± 132	≥ 10000	10.7 ± 1.0	
